Experimental data published in PMC9894184 (Proceedings of the National Academy of Sciences of the …, 2022).

Biological target: dFASN (FASN1), recombinant full-length (Drosophila melanogaster, UniProt B7Z001)
Assay: NADPH oxidation FASN activity assay, Michaelis-Menten fit
Format: biochemical
Conditions: 240 µM NADPH, 58 µM malonyl-CoA fixed

dFASN (FASN1), recombinant full-length, sequence (B7Z001 1-2540): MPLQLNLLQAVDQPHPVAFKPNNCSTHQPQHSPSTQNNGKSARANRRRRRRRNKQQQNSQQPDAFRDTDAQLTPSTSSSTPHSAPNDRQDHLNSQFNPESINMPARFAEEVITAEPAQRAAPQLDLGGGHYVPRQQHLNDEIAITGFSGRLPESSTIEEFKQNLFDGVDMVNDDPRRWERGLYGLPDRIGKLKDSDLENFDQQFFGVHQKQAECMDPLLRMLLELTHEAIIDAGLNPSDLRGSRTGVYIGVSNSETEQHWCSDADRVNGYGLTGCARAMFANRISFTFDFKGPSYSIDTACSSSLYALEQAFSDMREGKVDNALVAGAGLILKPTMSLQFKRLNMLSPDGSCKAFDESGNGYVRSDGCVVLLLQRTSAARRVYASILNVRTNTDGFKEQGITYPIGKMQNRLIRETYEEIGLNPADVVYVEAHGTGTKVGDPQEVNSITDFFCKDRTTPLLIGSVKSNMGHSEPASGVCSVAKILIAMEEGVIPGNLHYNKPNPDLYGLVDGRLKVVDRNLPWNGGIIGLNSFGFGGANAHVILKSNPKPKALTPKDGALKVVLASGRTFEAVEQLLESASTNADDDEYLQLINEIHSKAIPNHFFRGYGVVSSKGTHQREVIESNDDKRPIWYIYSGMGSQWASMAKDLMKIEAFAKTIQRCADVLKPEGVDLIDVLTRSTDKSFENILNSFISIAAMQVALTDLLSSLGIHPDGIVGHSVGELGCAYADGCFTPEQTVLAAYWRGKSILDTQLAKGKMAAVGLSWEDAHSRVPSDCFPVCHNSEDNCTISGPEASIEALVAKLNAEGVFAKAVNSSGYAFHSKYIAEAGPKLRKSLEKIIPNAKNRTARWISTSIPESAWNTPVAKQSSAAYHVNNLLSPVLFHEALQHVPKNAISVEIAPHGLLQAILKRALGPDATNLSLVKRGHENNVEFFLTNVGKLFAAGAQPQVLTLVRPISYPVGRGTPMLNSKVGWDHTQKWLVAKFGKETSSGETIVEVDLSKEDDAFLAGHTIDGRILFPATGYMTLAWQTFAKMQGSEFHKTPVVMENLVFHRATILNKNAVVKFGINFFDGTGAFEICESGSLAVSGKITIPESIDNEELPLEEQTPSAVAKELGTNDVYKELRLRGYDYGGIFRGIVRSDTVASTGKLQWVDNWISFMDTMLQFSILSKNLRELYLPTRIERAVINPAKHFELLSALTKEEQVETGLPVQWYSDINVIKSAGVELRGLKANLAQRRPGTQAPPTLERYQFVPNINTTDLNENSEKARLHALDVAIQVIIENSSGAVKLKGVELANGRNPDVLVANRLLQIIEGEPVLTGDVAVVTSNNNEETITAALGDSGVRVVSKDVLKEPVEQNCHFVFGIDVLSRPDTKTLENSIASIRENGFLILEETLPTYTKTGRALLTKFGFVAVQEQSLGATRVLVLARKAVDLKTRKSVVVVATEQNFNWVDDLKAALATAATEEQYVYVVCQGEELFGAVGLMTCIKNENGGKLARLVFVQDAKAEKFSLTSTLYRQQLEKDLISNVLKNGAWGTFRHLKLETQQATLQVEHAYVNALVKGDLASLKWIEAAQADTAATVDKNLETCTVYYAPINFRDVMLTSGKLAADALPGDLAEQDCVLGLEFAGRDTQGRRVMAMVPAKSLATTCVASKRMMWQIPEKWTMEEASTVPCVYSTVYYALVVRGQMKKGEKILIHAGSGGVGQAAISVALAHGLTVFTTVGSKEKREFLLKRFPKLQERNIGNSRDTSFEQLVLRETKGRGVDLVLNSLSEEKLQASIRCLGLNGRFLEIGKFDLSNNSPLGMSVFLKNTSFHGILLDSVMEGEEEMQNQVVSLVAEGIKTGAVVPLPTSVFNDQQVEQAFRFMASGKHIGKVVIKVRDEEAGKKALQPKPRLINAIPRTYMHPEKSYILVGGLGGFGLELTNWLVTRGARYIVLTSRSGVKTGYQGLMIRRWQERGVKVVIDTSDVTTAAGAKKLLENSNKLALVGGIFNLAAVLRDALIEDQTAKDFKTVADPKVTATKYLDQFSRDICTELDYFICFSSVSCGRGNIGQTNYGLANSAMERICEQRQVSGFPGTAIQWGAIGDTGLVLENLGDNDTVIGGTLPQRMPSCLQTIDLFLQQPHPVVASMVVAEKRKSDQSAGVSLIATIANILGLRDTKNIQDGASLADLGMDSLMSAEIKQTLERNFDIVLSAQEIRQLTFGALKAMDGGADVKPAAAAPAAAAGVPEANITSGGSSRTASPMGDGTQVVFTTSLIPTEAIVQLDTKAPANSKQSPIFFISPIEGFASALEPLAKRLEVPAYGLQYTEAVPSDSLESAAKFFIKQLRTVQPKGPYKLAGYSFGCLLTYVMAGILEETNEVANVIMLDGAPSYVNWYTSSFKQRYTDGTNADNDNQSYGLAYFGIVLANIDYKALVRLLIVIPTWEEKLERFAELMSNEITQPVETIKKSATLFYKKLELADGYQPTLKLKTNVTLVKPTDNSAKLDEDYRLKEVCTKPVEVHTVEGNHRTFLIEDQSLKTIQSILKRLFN

In the case of `CC(=O)SCCNC(=O)CCNC(=O)[C@H](O)C(C)(C)COP(=O)(O)OP(=O)(O)OC[C@H]1O[C@@H](n2cnc3c(N)ncnc32)[C@H](O)[C@@H]1OP(=O)(O)O` [acetyl-CoA], the Km is reported as “Steady-state kinetics over AcCoA was also evaluated”.
